Tests used:
[1] = tested on: Male Long-Evans rats (tail flick, thermal nociception); assay: Rat tail flick test, single intravenous injection; type: in vivo; conditions: for tail flick latency (MPE) compared with same dose of WIN alone: i.v. single injection
Experimental: (§1) Male Long-Evans rats (N=175) from Charles River (Montreal, QC, Canada) ranging from 230-380 grams, were housed in polycarbonate cages in pairs and given free access to food (Lab Diet, PMI Nutrition International, Inc., Brentwood, Mo., USA) and water. Animal quarters were kept on a reverse light-dark cycle (lights on from 7 pm to 7 am) and maintained at 22±2° C. and 45±20% relative humidity. Animals were given a minimum of 3 days prior to the experiment to acclimatize to the animal quarters.
(§2) All injections were administered in a volume of 1 ml/kg. All chemicals were dissolved in 5% dimethyl sulfoxide (DMSO; Sigma, Oakville, ON, Canada), 0.3% polyoxyethylenesorbitan monooleate (Tween® 80; Sigma, Oakville, ON, Canada) and 94.7% saline vehicle, and administered intravenously in the posterior ⅓ of the lateral tail vein.
For single injection testing, vehicle alone was used as a control injection (n=8).
(§3) The tail flick apparatus consisted of a projection lamp that creates radiant heat located just below the animal-testing surface (D'Amour, E. E. and Smith, D. L. J. Pharmacol. Exp. Ther. 1941 72:74-79). The light from the lamp projected through a small hole in the testing surface and was aimed at a photocell located 25 cm above the testing surface. A digital timer, connected to the apparatus, started when the heat source was activated. When the animal flicked its tail away from the heat source, the light from the projection lamp activated the photocell, simultaneously stopping the timer and turning off the lamp. The heat intensity was calibrated to result in baseline tail flick latencies of 2-3 seconds and a 10 second cutoff was used to minimize tissue damage.
Nociceptive reflexes to a thermal stimulus were tested using the tail flick analgesia meter. This apparatus focuses a hot beam on the animal's tail. The time it takes for the rat to flick its tail away from the heat source is a measure of pain; the longer the animal leaves its tail on the hotspot, the greater the degree of pain relief. On the day prior to tail flick testing, animals were handled on the tail flick apparatus for 5-10 minutes to reduce stress-induced analgesia (Kelly, S. J. and Franklin, K. B., Neuropharmacology 1985 24:1019-1025; Terman et al., Science 1984 226:1270-1277). For single injection tested groups, animals were restrained in a small towel and a baseline tail flick latency was measured. Following the baseline measure, animals were given a drug injection and tail flick latencies were assessed every 10 minutes for 90 minutes. For the repeated injection groups, animals were given one drug injection every day for seven days. Prior to the first injection, a baseline tail flick latency was measured. Following this measure, animals were given a drug injection and tail flick latencies were assessed 10 minutes post-injection. […] Post injection tail flick latencies were assessed on days 1, 3, 5, and 7. For all animals, tail flick latencies were converted into a percent of maximal possible effect (MPE) using the equation: MPE=[(post-injection latency−baseline latency)/(10 s cutoff−baseline latency)]×100
(§4) Separate two-way repeated measure ANOVAs were performed on the single injection groups, and repeated injection groups (see Example 2). Post-injection time (10-90 minutes for single injection groups) or day of injection (1-7 days for the repeated injection groups) were the within-subjects factors and drug group was the between-subjects factor. Whenever there were violations of sphericity, Huynh-Feldt corrections to the within-group degrees of freedom were reported. Because many drug group comparisons were irrelevant, a priori multiple comparisons were used to analyze the main drug effect using the Dunn's critical t-ratio. A corrected α of 0.005 was used for the single injection groups because there were 8 comparisons, and a corrected α of 0.01 was used for the repeated injection groups because there were 4 comparisons.

[2] = tested on: Male Long-Evans rats (tail flick, thermal nociception); assay: Rat tail flick test, repeated daily injections for 7 days (tolerance); type: in vivo; conditions: for tail flick latency thresholds compared with WIN alone: i.v. daily for 7 days
Experimental: as §1, §2
For repeated injection testing, vehicle alone was used as a control injection (n=8). […] The control group received 1.1 ng/kg ultra-low dose of SR alone.
as §3
Nociceptive reflexes to a thermal stimulus were tested using the tail flick analgesia meter. This apparatus focuses a hot beam on the animal's tail. The time it takes for the rat to flick its tail away from the heat source is a measure of pain; the longer the animal leaves its tail on the hotspot, the greater the degree of pain relief. On the day prior to tail flick testing, animals were handled on the tail flick apparatus for 5-10 minutes to reduce stress-induced analgesia (Kelly, S. J. and Franklin, K. B., Neuropharmacology 1985 24:1019-1025; Terman et al., Science 1984 226:1270-1277). For single injection tested groups, animals were restrained in a small towel and a baseline tail flick latency was measured. Following the baseline measure, animals were given a drug injection and tail flick latencies were assessed every 10 minutes for 90 minutes. For the repeated injection groups, animals were given one drug injection every day for seven days. Prior to the first injection, a baseline tail flick latency was measured. Following this measure, animals were given a drug injection and tail flick latencies were assessed 10 minutes post-injection. This time point was selected because it is the point at which maximal WIN-induced antinociception is detected in this protocol. Post injection tail flick latencies were assessed on days 1, 3, 5, and 7. For all animals, tail flick latencies were converted into a percent of maximal possible effect (MPE) using the equation: MPE=[(post-injection latency−baseline latency)/(10 s cutoff−baseline latency)]×100
as §4, with “A corrected α of 0.005 was used for the single injection groups because there were 8 comparisons, and a corrected α of 0.01 was used for the repeated injection groups because there were 4 comparisons.” left out

Compound	degree of antinociception in the tail flick test ([1]; rat, in vivo)	tail flick latency (MPE) compared with vehicle ([1]; rat, in vivo)	tail flick latency compared with vehicle ([2]; WIN 0.125 mg/kg i.v. alone, daily for 7 days, tested days 1, 3, 5, 7, t(14)=10.44, P≦0.01)	degree of antinociception in the tail flick test ([2]; WIN alone at 0.125 mg/kg i.v.)	time point post-injection of maximal WIN-induced antinociception ([2]; tail flick, i.v.)	tail flick latency (MPE) compared with same dose of WIN alone ([1]; SR 0.055 ng/kg mixed with WIN 0.0625 mg/kg, t(14)=3.28)	tail flick latency (MPE) compared with same dose of WIN alone ([1]; SR 0.083 ng/kg with WIN 0.09375 mg/kg, t(14)=8.16, P≦0.005)	tail flick latency (MPE) compared with same dose of WIN alone ([1]; SR 0.55 ng/kg in combination with WIN 0.0625 mg/kg, t(14)=6.72, P≦0.005)	tail flick latency (MPE) compared with same dose of WIN alone ([1]; SR 0.83 ng/kg with WIN 0.09375 mg/kg, t(14)=9.63, P≦0.005)	antinociceptive properties of WIN in rat tail flick test (FIG. 1A, 1B) ([1]; ultra-low dose SR (0.55, 0.055, 0.83, 0.083 ng/kg) with WIN (0.0625 or 0.09375 mg/kg), single i.v. injection)	tail flick latency thresholds compared with WIN alone ([2]; SR 0.11 ng/kg with WIN 0.125 mg/kg, t(14)=14.35, P≦0.01)	tail flick latency thresholds compared with WIN alone ([2]; SR 1.1 ng/kg with WIN 0.125 mg/kg, t(14)=9.77, P≦0.01)	prevention of WIN-induced tolerance / enhancement of antinociception ([2]; SR to WIN dose ratio 1:100,000)	prevention of WIN-induced tolerance / enhancement of antinociception ([2]; SR to WIN dose ratio 1:1,000,000, slightly (although not significant) better at preventing tolerance)	development of tolerance to the analgesic action of WIN in rat tail flick test (FIG. 2) ([2]; daily ultra-low dose SR (1.1 or 0.11 ng/kg) with WIN 0.125 mg/kg, i.v.)
CS(=O)(=O)O.Cc1c(C(=O)c2cccc3ccccc23)c2cccc3c2n1[C@H](CN1CCOCC1)CO3 [WIN, (R)-(+)-[2,3-Dihydro-5-methyl-3-(4-morpholinylmethyl)pyrrolo[1,2,3-de]-1,4-benzoxazin-6-yl]-1-naphthalenylmethanone mesylate]	sub-maximal antinociception	no difference	greater tail flick latencies	maximal antinociception	10 min										
Cc1c(C(=O)NN2CCCCC2)nn(-c2ccc(Cl)cc2Cl)c1-c1ccc(Cl)cc1 [SR, N-(Piperidin-1-yl)-5-(4-chlorophenyl)-1-(2,4-dichlorophenyl)-4-methyl-1H-pyrazole-3-carboxamide]						no difference	longer tail flick latencies	longer tail flick latencies	longer tail flick latencies	enhanced	greater tail flick latency thresholds	greater tail flick latency thresholds	effective	effective	prevented the development of tolerance

Source: patent publication US20070060638A1, “Methods and therapies for potentiating therapeutic activities of a cannabinoid receptor agonist via administration of a cannabinoid receptor antagonist” (priority 2005, published 2007)
